One assay has as its target T1, Cyclophilin A (Homo sapiens, UniProt P62937).
T1 construct: made in house
The assay can be described thus: AlphaLISA inhibition of binding of biotinylated Cyclosporin A to FLAG tagged Cyclophilin A. The settings on record: for % signal: AlphaLISA signal; for % signal / % inhibition of CsA binding to Cyclophilin A: test concentration not given; for IC50: read-out: IC50 value of CsA binding to Cyclophilin A. The method in brief:
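Inhibition of biotin-CsA binding to FLAG-tagged Cyclophilin A read by AlphaLISA (ex 680, em 615 nm). Working stocks were 6 nM biotinylated CsA and 25 nM FLAG-CypA; beads and compound were combined first for 30 min, then protein added for 60 min, all at room temperature in the dark, with DMSO and cyclosporin A controls.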
Background: Alpha assays give light when donor and acceptor beads are brought close together.

A further assay relates to HeLa-CyclophilinA cells. Briefly: Biosensor cell permeability assay (cyclophilin destabilizing mutant), HeLa-CyclophilinA cells. The assay is classed as cell-based. The settings on record: 72 hrs. As for the experimental part:
Cell permeability of compounds can be determined using the following protocol.
This protocol utilizes a modified FKBP or cyclophilin destabilizing mutant to determine the bioactivity of FKBP binding compounds or cyclophilin binding compounds in whole cell assay.
DMEM, DMEM without Phenol Red, 10% FBS, 1× Sodium Pyruvate, 1× Glutamax. Add 125 μl of media with compound per well.
Plate HeLa-FKBP12 cells (for FKBP binding compounds) or HeLa-CyclophilinA cells (for cyclophilin binding compounds) and seed overnight at 5 k/well (approximately ˜18 hrs.). Using a multi-channel pipet, take out the old media and add ˜125 ul of new media with compounds. Compounds are diluted using DMEM without Phenol Red, 10% FBS, 1× Sodium Pyruvate, 1× Glutamax. Add 125 μL of media with compound per well. Cells are treated with compounds at concentration: 30, 10, 3.33, 1.11, 0.37, 0.12, 0.04 and 0.013 uM. Time points are taken at 72 hrs and plate read using plate reader with excitation/emission: 575/620.
Cell binding/permeability is calculated in fold-change (Total RFU of treated samples/total RFU of DMSO treated samples or total RFU above background (Total RFU minus total RFU of DMSO treated samples).

Where a SMILES comes first, the peptide text is derived from it. [ ]: non-standard residue; d: D form. MeBmt = C/C=C/C[C@@H](C)[C@@H](O)[C@H](NC)C(=O)O; NMeY = CN[C@@H](Cc1ccc(O)cc1)C(=O)O; NMeF = CN[C@@H](Cc1ccccc1)C(=O)O; NMeL = CN[C@@H](CC(C)C)C(=O)O; dNMeV = CN[C@@H](C(=O)O)C(C)C; Tle = CC(C)(C)[C@H](N)C(=O)O; NMeNva = CCC[C@H](NC)C(=O)O; NMeV = CN[C@H](C(=O)O)C(C)C; NMeA = CN[C@@H](C)C(=O)O; Abu = CC[C@H](N)C(=O)O; Sar = CNCC(=O)O

Usually IC50 stands for the concentration that inhibits the measured activity by half.

T1 sequence (P62937 whole entry, species assumed): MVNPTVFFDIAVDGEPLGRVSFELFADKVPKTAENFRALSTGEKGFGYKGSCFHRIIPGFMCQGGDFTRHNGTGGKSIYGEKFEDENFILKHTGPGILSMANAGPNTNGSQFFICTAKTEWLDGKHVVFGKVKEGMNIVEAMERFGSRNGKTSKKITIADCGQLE

On to `C/C=C/C[C@@H](C)[C@@H](O)[C@H]1C(=O)N[C@@H](CC)C(=O)N(C)CC(=O)N(C)[C@@H](C)C(=O)N[C@@H](C(C)C)C(=O)N(C)[C@@H](CC(C)C)C(=O)N[C@@H](C)C(=O)N[C@H](C)C(=O)N(C)[C@@H](CC(C)C)C(=O)N(C)[C@@H](CC(C)C)C(=O)N(C)[C@@H](C(C)C)C(=O)N1C` [Compound C34], for which, on Cyclophilin A, the “% signal” value is reported as −0.01%, the IC50 is below 2000 nM and the “% inhibition of CsA binding to Cyclophilin A” value (from here on “% inhibition of CsA binding”) worked out at 100.01%. Also, the IC50 with HeLa-CyclophilinA cells is below 3000 nM.
Regarding `C/C=C/C[C@@H](C)[C@@H](O)[C@H]1C(=O)N[C@@H](CC)C(=O)N(C)CC(=O)N(C)[C@@H](C(C)C)C(=O)N[C@@H](CC(C)C)C(=O)N(C)[C@@H](CC(C)C)C(=O)N[C@@H](CC(C)C)C(=O)N[C@H](C)C(=O)N(C)[C@@H](CC(C)C)C(=O)N(C)[C@@H](CC(C)C)C(=O)N(C)[C@@H](C(C)C)C(=O)N1C` [Compound C65] (cyclo([MeBmt][Abu][Sar][NMeV]L[NMeL]L[dA][NMeL][NMeL][NMeV])), on Cyclophilin A, the “% signal” value is reported as 0.27%, the IC50 was below 2000 nM and the “% inhibition of CsA binding” value stood at 99.73%.
Take `C/C=C/C[C@@H](C)[C@@H](O)[C@H]1C(=O)N[C@@H](CC)C(=O)N(C)CC(=O)N(C)CC(=O)N[C@@H](C(C)C)C(=O)N(C)[C@@H](C)C(=O)N[C@@H](C)C(=O)N[C@H](C)C(=O)N(C)[C@@H](CC(C)C)C(=O)N(C)[C@@H](CC(C)C)C(=O)N(C)[C@@H](C(C)C)C(=O)N1C` [Compound C5] (cyclo([MeBmt][Abu][Sar][Sar]V[NMeA]A[dA][NMeL][NMeL][NMeV])): on Cyclophilin A, the “% signal” value is 9.09%, the IC50 is below 2000 nM and the “% inhibition of CsA binding” value stood at 90.91%.
The like results for `C/C=C/C[C@@H](C)[C@@H](O)[C@H]1C(=O)N[C@@H](CC)C(=O)N(C)CC(=O)N(C)[C@@H](Cc2ccccc2)C(=O)N[C@@H](C(C)C)C(=O)N(C)[C@@H](C)C(=O)N[C@@H](CC(C)C)C(=O)N[C@H](C)C(=O)N(C)[C@@H](CC(C)C)C(=O)N(C)[C@@H](CC(C)C)C(=O)N(C)[C@@H](C(C)C)C(=O)N1C` [Compound C84] (cyclo([MeBmt][Abu][Sar][NMeF]V[NMeA]L[dA][NMeL][NMeL][NMeV])) were, in that order, 6.81%, below 2000 nM and 93.19%.
As for `C/C=C/C[C@@H](C)[C@@H](O)[C@H]1C(=O)N[C@@H](CC)C(=O)N(C)CC(=O)N(C)[C@@H](CCC)C(=O)N[C@@H](CC(C)C)C(=O)N(C)[C@@H](CC(C)C)C(=O)N[C@@H](CC(C)C)C(=O)N[C@H](C)C(=O)N(C)[C@@H](CC(C)C)C(=O)N(C)[C@@H](CC(C)C)C(=O)N(C)[C@@H](C(C)C)C(=O)N1C` [Compound C66] (cyclo([MeBmt][Abu][Sar][NMeNva]L[NMeL]L[dA][NMeL][NMeL][NMeV])), at Cyclophilin A, the “% signal” value was found to be 10.95%, the IC50 is below 2000 nM and the “% inhibition of CsA binding” value amounted to 89.05%.
The like results for `C/C=C/C[C@@H](C)[C@@H](O)[C@H]1C(=O)N[C@@H](CC)C(=O)N(C)CC(=O)N(C)CC(=O)N[C@@H](C)C(=O)N(C)CC(=O)N[C@@H](C)C(=O)N[C@H](C)C(=O)N(C)[C@@H](CC(C)C)C(=O)N(C)[C@@H](CC(C)C)C(=O)N(C)[C@@H](C(C)C)C(=O)N1C` [Compound C21] (cyclo([MeBmt][Abu][Sar][Sar]A[Sar]A[dA][NMeL][NMeL][NMeV])) were, in that order, 31.08%, below 2000 nM and 68.92%.
For the compound `C/C=C/C[C@@H](C)[C@@H](O)[C@H]1C(=O)N[C@@H](CC)C(=O)N(C)CC(=O)N(C)[C@@H](C)C(=O)N[C@@H](C)C(=O)N(C)CC(=O)N[C@@H](C)C(=O)N[C@H](C)C(=O)N(C)[C@@H](CC(C)C)C(=O)N(C)[C@@H](CC(C)C)C(=O)N(C)[C@@H](C(C)C)C(=O)N1C` [Compound C18] (cyclo([MeBmt][Abu][Sar][NMeA]A[Sar]A[dA][NMeL][NMeL][NMeV])), at Cyclophilin A, the “% signal” value amounted to 2.12% and the IC50 was below 2000 nM.
Turning to `C/C=C/C[C@@H](C)[C@@H](O)[C@H]1C(=O)N[C@@H](CC)C(=O)N(C)CC(=O)N(C)[C@@H](Cc2ccc(O)cc2)C(=O)N[C@@H](CC(C)C)C(=O)N(C)[C@@H](CC(C)C)C(=O)N[C@@H](CC(C)C)C(=O)N[C@H](C)C(=O)N(C)[C@@H](CC(C)C)C(=O)N(C)[C@@H](CC(C)C)C(=O)N(C)[C@@H](C(C)C)C(=O)N1C` [Compound C64] (cyclo([MeBmt][Abu][Sar][NMeY]L[NMeL]L[dA][NMeL][NMeL][NMeV])), at Cyclophilin A, the “% signal” value is 28.50%, the IC50 is below 2000 nM and the “% inhibition of CsA binding” value was found to be 71.50%.
The like results for `C/C=C/C[C@@H](C)[C@@H](O)[C@H]1C(=O)N[C@@H](CC)C(=O)N(C)CC(=O)N(C)[C@@H](CC(C)C)C(=O)N[C@@H](C(C)C)C(=O)N(C)[C@@H](C)C(=O)N[C@@H](CC(C)C)C(=O)N[C@H](C)C(=O)N(C)[C@@H](CC(C)C)C(=O)N(C)[C@@H](CC(C)C)C(=O)N(C)[C@@H](C(C)C)C(=O)N1C` [Compound C86] (cyclo([MeBmt][Abu][Sar][NMeL]V[NMeA]L[dA][NMeL][NMeL][NMeV])) were, in that order, 17.23%, below 2000 nM and 82.77%.
For `C/C=C/C[C@@H](C)[C@@H](O)[C@H]1C(=O)N[C@@H](CC)C(=O)N(C)CC(=O)N(C)[C@@H](Cc2ccccc2)C(=O)N[C@@H](C)C(=O)N(C)CC(=O)N[C@@H](C)C(=O)N[C@H](C)C(=O)N(C)[C@@H](CC(C)C)C(=O)N(C)[C@@H](CC(C)C)C(=O)N(C)[C@@H](C(C)C)C(=O)N1C` [Compound C20] (cyclo([MeBmt][Abu][Sar][NMeF]A[Sar]A[dA][NMeL][NMeL][NMeV])), at Cyclophilin A, the “% signal” value is recorded as 2.77%, the IC50 was below 2000 nM and the “% inhibition of CsA binding” value was determined as 97.23%.
The corresponding values for `C/C=C/C[C@@H](C)[C@@H](O)[C@H]1C(=O)N[C@@H](CC)C(=O)N(C)CC(=O)N(C)[C@@H](Cc2ccc(O)cc2)C(=O)N[C@@H](C(C)C)C(=O)N(C)[C@@H](CC(C)C)C(=O)N[C@@H](CC(C)C)C(=O)N[C@H](C)C(=O)N(C)[C@@H](CC(C)C)C(=O)N(C)[C@@H](CC(C)C)C(=O)N(C)[C@@H](C(C)C)C(=O)N1C` [Compound C52] (cyclo([MeBmt][Abu][Sar][NMeY]V[NMeL]L[dA][NMeL][NMeL][NMeV])) are 7.40%, below 2000 nM and 92.60%.
In the case of `C/C=C/C[C@@H](C)[C@@H](O)[C@H]1C(=O)N[C@@H](CC)C(=O)N(C)CC(=O)N(C)[C@H](C(C)C)C(=O)N[C@@H](CC(C)C)C(=O)N(C)[C@@H](CC(C)C)C(=O)N[C@@H](CC(C)C)C(=O)N[C@H](C)C(=O)N(C)[C@@H](CC(C)C)C(=O)N(C)[C@@H](CC(C)C)C(=O)N(C)[C@@H](C(C)C)C(=O)N1C` [Compound C67] (cyclo([MeBmt][Abu][Sar][dNMeV]L[NMeL]L[dA][NMeL][NMeL][NMeV])), on Cyclophilin A, the “% signal” value is 40.86%, the IC50 was below 2000 nM and the “% inhibition of CsA binding” value is recorded as 59.14%.
With `C/C=C/C[C@@H](C)[C@@H](O)[C@H]1C(=O)N[C@@H](CC)C(=O)N(C)CC(=O)N(C)[C@@H](CCCC)C(=O)N[C@@H](C(C)C)C(=O)N(C)[C@@H](CC(C)C)C(=O)N[C@@H](CC(C)C)C(=O)N[C@H](C)C(=O)N(C)[C@@H](CC(C)C)C(=O)N(C)[C@@H](CC(C)C)C(=O)N(C)[C@@H](C(C)C)C(=O)N1C` [Compound C56], at Cyclophilin A, the “% signal” value was 2.44%, the IC50 is below 2000 nM and the “% inhibition of CsA binding” value is 97.56%.
The corresponding values for `C/C=C/C[C@@H](C)[C@@H](O)[C@H]1C(=O)N[C@@H](CC)C(=O)N(C)CC(=O)N(C)[C@H](C(C)C)C(=O)N[C@@H](C(C)C)C(=O)N(C)[C@@H](CC(C)C)C(=O)N[C@@H](CC)C(=O)N[C@H](C)C(=O)N(C)[C@@H](CC(C)C)C(=O)N(C)[C@@H](CC(C)C)C(=O)N(C)[C@@H](C(C)C)C(=O)N1C` [Compound C103] (cyclo([Abu][Sar][dNMeV]V[NMeL][Abu][dA][NMeL][NMeL][NMeV][MeBmt])) are 13.65%, below 2000 nM and 86.35%.
With `C/C=C/C[C@@H](C)[C@@H](O)[C@H]1C(=O)N[C@@H](CC)C(=O)N(C)CC(=O)N(C)[C@@H](Cc2ccccc2)C(=O)N[C@@H](C(C)(C)C)C(=O)N(C)[C@@H](C)C(=O)N[C@@H](CC(C)C)C(=O)N[C@H](C)C(=O)N(C)[C@@H](CC(C)C)C(=O)N(C)[C@@H](CC(C)C)C(=O)N(C)[C@@H](C(C)C)C(=O)N1C` [Compound C72] (cyclo([MeBmt][Abu][Sar][NMeF][Tle][NMeA]L[dA][NMeL][NMeL][NMeV])), at Cyclophilin A, the “% signal” value is reported as 2.78%, the IC50 is below 2000 nM and the “% inhibition of CsA binding” value is given as 97.22%.

The record behind these values is patent US20200199102A1, “COMPOUNDS THAT PARTICIPATE IN COOPERATIVE BINDING AND USES THEREOF” (Revolution Medicines, Inc., priority 2017, published 2020).
